Measured values taken from US4684739A, “Alkylenedioxybenzene derivatives and acid addition salts thereof” (Mitsubishi Chemical Industries Limited, priority 1980, dated 1987).
Where a name gives a salt, the structure may show the parent alone.

Key:
[1] = tested on: spontaneous hypertensive rats (SHR); assay: Hypotensive effect in spontaneous hypertensive rats after oral administration; type: in vivo; details: Rattus norvegicus, percent drop relative to blood pressure before medication; for inhibition in vivo at 1 mg/kg: 1 mg/kg p.o.; for inhibition in vivo at 3 mg/kg: 3 mg/kg p.o.; for inhibition in vivo at 10 mg/kg: 10 mg/kg p.o.
Method: The hypotensive activities of the compounds of this invention were tested as follows: The test animals used were spontaneous hypertensive rats (SHR) of 5 to 7 month old weighing 300 to 370 g. The blood pressure and the heart rate were measured bloodily under no anesthesia by means of a cathether which has been inserted through the tail's artery under ether anesthesia, thereby determining the average blood pressure and heart rate before medication. […] The hypotensive effect was expressed as percent drop relative to the blood pressure before medication.

[2] = Acute toxicity (LD50) in mice, Litchfield-Wilcoxon method; details: mouse, in vivo
Method: The values for acute toxicity (LD50 ) were calculated by the Litchfield-Wilcoxon method from the data obtained on mice.

SMILES | inhibition in vivo at 1 mg/kg [1] [%] | inhibition in vivo at 3 mg/kg [1] [%] | inhibition in vivo at 10 mg/kg [1] [%] | LD50 ([2]; po) [mg/kg] | LD50 ([2]; ip) [mg/kg] | LD50 ([2]; iv) [mg/kg]
Cl.OC(CNCC1COc2ccccc2O1)COc1ccc2c(c1)OCO2 (stereo not drawn) [Compound 1, 5-[3-{(1,4-benzodioxan-2-ylmethyl)amino}-2-hydroxypropoxy]-1,3-benzodioxole hydrochloride] | 9.9 | 15.4 | 27.6 | 515 | – | –
OC(CNCC1COc2ccccc2O1)COc1ccc2c(c1)OCCO2 (stereo not drawn) [Compound 2, 6-[3-{(1,4-benzodioxan-2-ylmethyl)amino}-2-hydroxypropoxy]-1,4-benzodioxane] | 9 | 20.2 | 30.4 | – | – | –
Cl.c1ccc2c(c1)OCC(CNCCCOc1ccc3c(c1)OCO3)O2 (stereo not drawn) [Compound 5, 5-[3-{(1,4-benzodioxan-2-ylmethyl)amino}propoxy]-1,3-benzodioxole hydrochloride] | – | 32.6 | 47.6 | – | 165 | –
c1ccc2c(c1)OCC(CNCCCCOc1ccc3c(c1)OCO3)O2 (stereo not drawn) [Compound 6] | – | 28.5 | 32 | – | – | –
c1ccc2c(c1)OCC(CNCCCOc1ccc3c(c1)OCCO3)O2 (stereo not drawn) [Compound 7, 6-[3-{(1,4-benzodioxan-2-ylmethyl)amino}propoxy]-1,4-benzodioxane] | – | 35.2 | 55.3 | – | – | –
c1ccc2c(c1)OCC(CNCCCOc1ccc3c(c1)OCCCO3)O2 (stereo not drawn) [Compound 9, 1-[3-{(1,4-benzodioxan-2-ylmethyl)amino}propoxy]-3,4-trimethylenedioxybenzene] | – | 30.1 | 48.4 | – | – | –
c1ccc2c(c1)OCC(CNCCCCOc1cccc3c1OCO3)O2 (stereo not drawn) [Compound 10] | – | 30.6 | 40 | – | – | –
Cl.O=C(CNCC1COc2ccccc2O1)c1ccc2c(c1)OCO2 (stereo not drawn) [Compound 12, 5-[2-{(1,4-benzodioxan-2-ylmethyl)amino}acetyl]-1,3-benzodioxole hydrochloride] | 20.1 | 28.2 | 42.3 | 1350 | – | –
c1ccc2c(c1)OCC(CNCCCCc1ccc3c(c1)OCCO3)O2 (stereo not drawn) [Compound 16, 6-[4-{(1,4-benzodioxan-2-ylmethyl)amino}butyl]-1,4-benzodioxane] | 12.1 | 33.7 | 50 | – | – | 31
c1ccc2c(c1)OCC(CNCCCCc1ccc3c(c1)OCCCO3)O2 (stereo not drawn) [Compound 17, 1-[4-{(1,4-benzodioxan-2-ylmethyl)amino}butyl]-3,4-trimethylenedioxybenzene hydrochloride] | 20.1 | 29.7 | – | – | – | –
O=C(CCNCC1COc2ccccc2O1)Nc1ccc2c(c1)OCO2 (stereo not drawn) [Compound 18, N-[3-{(1,4-benzodioxan-2-ylmethyl)amino}propionyl]-3,4-methylenedioxyaniline] | 11.9 | 27.5 | 41 | – | – | –
c1ccc2c(c1)OCC(CNCCCNc1ccc3c(c1)OCO3)O2 (stereo not drawn) [Compound 19, N-[3-{(1,4-benzodioxan-2-ylmethyl)amino}propyl]-3,4-methylenedioxyaniline] | 19.6 | 27.8 | 44.3 | – | – | –
OC(CNCC1COc2ccccc2O1)c1ccc2c(c1)OCCO2 (stereo not drawn) [Compound 21, 6-[2-{(1,4-benzodioxan-2-ylmethyl)amino}-1-hydroxyethyl]-1,4-benzodioxane] | 9.8 | 19.5 | 39.1 | – | – | –
c1ccc2c(c1)OCC(CNCCOc1cccc3c1OCO3)O2 (stereo not drawn) [Compound 26, reference compound] | – | 3.5 | 8.1 | – | – | –
O=C(CCNCC1COc2ccccc2O1)c1ccc2c(c1)OCO2 (stereo not drawn) [Compound 27, reference compound] | 7.8 | 12.8 | 30.3 | – | – | –
